{"source": "patent US11554182B2", "about": "“Macrocyclic complexes of alpha-emitting radionuclides and their use in targeted radiotherapy of cancer” (CORNELL UNIVERSITY, priority 2017, dated 2023)", "assay": "In vivo biodistribution of ^225Ac complexes after intravenous injection", "design": "species or system C57BL/6 mice", "protocol": "In Vivo Biodistribution of ^225Ac Complexes of Macropa and DOTA. All experiments were approved by the Institutional Animal Care Committee (IACC) of the University of British Columbia and were performed in accordance with the Canadian Council on Animal Care Guidelines. A total of 9 female C57BL/6 mice (6-8 weeks old, 20-25 g) were used for the biodistribution study of each radiometal complex, n=3 for each time point.\nMacropa (100 μL of a 1 mg/mL solution in NH4OAc) was diluted with 387 μL of NH4OAc (1 M, pH 7), and an aliquot (203 μL) of ^225Ac(NO3)3 (˜157 kBq) was then added; the pH of this solution was adjusted to 6.5-7 by the addition of 1 M NaOH (210 μL, trace metal grade). After 5 min at ambient temperature, the reaction solution was analyzed by TLC (0.4 M pH 4 sodium citrate as the eluent), which confirmed >95% radiochemical yield. The reaction was allowed to proceed overnight, and the radiochemical yield was again confirmed to be >95% the following morning. At this time, mice were anesthetized by 2% isoflurane, and approximately 100 μL (10-15 kBq) of the [^225Ac(macropa)]^+ complex were injected into the tail vein of each mouse. After injection, mice were allowed to recover and roam freely in their cages, and were euthanized by CO2 inhalation at 15 min, 1 h, or 5 h (n=3 at each time point) post-injection. Blood was collected by cardiac puncture and placed into an appropriate test tube for scintillation counting. Tissues collected included heart, liver, kidneys, lungs, small intestine, large intestine, brain, bladder, spleen, stomach, pancreas, bone, thyroid, tail, urine, and feces. Tissues were weighed and then counted with a calibrated gamma counter (Packard, Cobra II model 5002) using three energy windows: 60-120 keV (window A), 180-260 keV (window B), and 400-480 keV (window C). Counting was performed both immediately after sacrifice and after 7 days; counts were decay corrected from the time of injection and then converted to the percentage of injected dose (% ID) per gram of tissue (% ID/g). No differences were noted between the data; therefore, the biodistributions are reported using the data acquired immediately using window A.\nThe biodistribution studies of [^225Ac(DOTA)]^− and ^225Ac(NO3)3 were carried out as described above for [^225Ac(macropa)]^+, with the following modifications. [^225Ac(DOTA)]^− was prepared by adding ^225Ac(NO3)3 (338 μL, 1.1 MBq) to a solution of DOTA (100 μg, 20 mg/mL in H2O) in NH4OAc (467 μL, 0.15 M, pH 7). The pH of the solution was adjusted to 7 using NH4OAc (150 μL, 1 M, pH 7) and the solution was heated at 85° C. for 45 min. RCY>99% was confirmed by TLC as described above. [^225Ac(DOTA)]^− was diluted with saline to a final concentration of 0.05 MBq/100 μL, and 100 μL were injected into each mouse. ^225Ac(NO3)3 (˜58 μL, 0.4 MBq) was diluted and injected in the same manner as [^225Ac(DOTA)]^−. One mouse that was to be euthanized at the 5 h time point in the [^225Ac(DOTA)]^− study died shortly after injection. In the same manner, one mouse that was to be euthanized at the 1 h time point in the ^225Ac(NO3)3 study died.\nThe in vivo stability [^225Ac(macropa)]^+ was examined by comparing its biodistribution to those of ^225Ac(NO3)3 and [^225Ac(DOTA)]^−. C57BL/6 mice were injected via tail vein with 10-50 kBq of each radiometal complex and were sacrificed after 15 min, 1 h, or 5 h. The amount of ^225Ac retained in each organ was quantified by gamma counting and reported as the percent of injected dose per gram of tissue (% ID/g). The results of these studies are compiled in Tables 1-3. Inadequate stability of an ^225Ac complex leading to the loss of radioisotope in vivo is manifested by the accumulation of ^225Ac in the liver, spleen, and bone of mice.^[11,12,32] […] The biodistribution profile of [^225Ac(macropa)]^+ (FIG. 3B) differs markedly from that of ^225Ac(NO3)3. […]", "key": {"[1]": {"details": "1 h after i.v. injection, energy window B (180-260 keV)"}, "[2]": {"details": "1 h after i.v. injection, energy window C (400-480 keV)"}, "[3]": {"details": "5 h after i.v. injection, energy window A (60-120 keV)"}, "[4]": {"details": "5 h after i.v. injection, energy window B (180-260 keV)"}, "[5]": {"details": "5 h after i.v. injection, energy window C (400-480 keV)"}, "[6]": {"details": "i.v. injection, C57BL/6 mice, up to 5 h"}}, "data": [{"smiles": "O=C([O-])c1cccc(CN2CCOCCOCCN(Cc3cccc(C(=O)[O-])n3)CCOCCOCC2)n1.[225Ac+3]", "note": "[[^225Ac(macropa)]^+]", "values": [{"measurement": "% ID/g in pancreas", "setting": "[1]", "value": 0.12, "unit": "% ID/g"}, {"measurement": "% ID/g in small intestines", "setting": "[1]", "value": 0.94, "unit": "% ID/g"}, {"measurement": "% ID/g in spleen", "setting": "[1]", "value": 0.23, "unit": "% ID/g"}, {"measurement": "% ID/g in stomach", "setting": "[1]", "value": 0.33, "unit": "% ID/g"}, {"measurement": "% ID/g in tail", "setting": "[1]", "value": 1.82, "unit": "% ID/g"}, {"measurement": "% ID/g in thyroids", "setting": "[1]", "value": 0.10, "unit": "% ID/g"}, {"measurement": "% ID/g in urine", "setting": "[1]", "value": 517.19, "unit": "% ID/g"}, {"measurement": "% ID/g in bladder", "setting": "[2]", "value": 9.00, "unit": "% ID/g"}, {"measurement": "% ID/g in blood", "setting": "[2]", "value": 0.54, "unit": "% ID/g"}, {"measurement": "% ID/g in bone (femur + joint)", "setting": "[2]", "value": 0.70, "unit": "% ID/g"}, {"measurement": "% ID/g in brain", "setting": "[2]", "value": 0.23, "unit": "% ID/g"}, {"measurement": "% ID/g in feces", "setting": "[2]", "value": 0.69, "unit": "% ID/g"}, {"measurement": "% ID/g in heart", "setting": "[2]", "value": 0.23, "unit": "% ID/g"}, {"measurement": "% ID/g in kidneys", "setting": "[2]", "value": 17.38, "unit": "% ID/g"}, {"measurement": "% ID/g in large intestines", "setting": "[2]", "value": 0.79, "unit": "% ID/g"}, {"measurement": "% ID/g in liver", "setting": "[2]", "value": 1.08, "unit": "% ID/g"}, {"measurement": "% ID/g in lungs", "setting": "[2]", "value": 0.84, "unit": "% ID/g"}, {"measurement": "% ID/g in pancreas", "setting": "[2]", "value": 0.43, "unit": "% ID/g"}, {"measurement": "% ID/g in small intestines", "setting": "[2]", "value": 1.62, "unit": "% ID/g"}, {"measurement": "% ID/g in spleen", "setting": "[2]", "value": 0.48, "unit": "% ID/g"}, {"measurement": "% ID/g in stomach", "setting": "[2]", "value": 0.17, "unit": "% ID/g"}, {"measurement": "% ID/g in tail", "setting": "[2]", "value": 2.57, "unit": "% ID/g"}, {"measurement": "% ID/g in thyroids", "setting": "[2]", "value": 8.34, "unit": "% ID/g"}, {"measurement": "% ID/g in urine", "setting": "[2]", "value": 641.63, "unit": "% ID/g"}, {"measurement": "% ID/g in bladder", "setting": "[3]", "value": 4.25, "unit": "% ID/g"}, {"measurement": "% ID/g in blood", "setting": "[3]", "value": 0.01, "unit": "% ID/g"}, {"measurement": "% ID/g in bone (femur + joint)", "setting": "[3]", "value": 0.05, "unit": "% ID/g"}, {"measurement": "% ID/g in brain", "setting": "[3]", "value": 0.02, "unit": "% ID/g"}, {"measurement": "% ID/g in feces", "setting": "[3]", "value": 3.46, "unit": "% ID/g"}, {"measurement": "% ID/g in heart", "setting": "[3]", "value": 0.10, "unit": "% ID/g"}, {"measurement": "% ID/g in kidneys", "setting": "[3]", "value": 0.74, "unit": "% ID/g"}, {"measurement": "% ID/g in large intestines", "setting": "[3]", "value": 0.49, "unit": "% ID/g"}, {"measurement": "% ID/g in liver", "setting": "[3]", "value": 0.39, "unit": "% ID/g"}, {"measurement": "% ID/g in lungs", "setting": "[3]", "value": 0.01, "unit": "% ID/g"}, {"measurement": "% ID/g in pancreas", "setting": "[3]", "value": 0.10, "unit": "% ID/g"}, {"measurement": "% ID/g in small intestines", "setting": "[3]", "value": 0.29, "unit": "% ID/g"}, {"measurement": "% ID/g in spleen", "setting": "[3]", "value": 0.11, "unit": "% ID/g"}, {"measurement": "% ID/g in stomach", "setting": "[3]", "value": 0.01, "unit": "% ID/g"}, {"measurement": "% ID/g in tail", "setting": "[3]", "value": 0.14, "unit": "% ID/g"}, {"measurement": "% ID/g in thyroids", "setting": "[3]", "value": 0.10, "unit": "% ID/g"}, {"measurement": "% ID/g in urine", "setting": "[3]", "value": 12.78, "unit": "% ID/g"}, {"measurement": "% ID/g in bladder", "setting": "[4]", "value": 3.69, "unit": "% ID/g"}, {"measurement": "% ID/g in blood", "setting": "[4]", "value": 0.00, "unit": "% ID/g"}, {"measurement": "% ID/g in bone (femur + joint)", "setting": "[4]", "value": 0.02, "unit": "% ID/g"}, {"measurement": "% ID/g in brain", "setting": "[4]", "value": "−0.01", "unit": "% ID/g"}, {"measurement": "% ID/g in feces", "setting": "[4]", "value": 3.49, "unit": "% ID/g"}, {"measurement": "% ID/g in heart", "setting": "[4]", "value": "−0.04", "unit": "% ID/g"}, {"measurement": "% ID/g in kidneys", "setting": "[4]", "value": 0.78, "unit": "% ID/g"}, {"measurement": "% ID/g in large intestines", "setting": "[4]", "value": 0.45, "unit": "% ID/g"}, {"measurement": "% ID/g in liver", "setting": "[4]", "value": 0.36, "unit": "% ID/g"}, {"measurement": "% ID/g in lungs", "setting": "[4]", "value": "−0.05", "unit": "% ID/g"}, {"measurement": "% ID/g in pancreas", "setting": "[4]", "value": "−0.12", "unit": "% ID/g"}, {"measurement": "% ID/g in small intestines", "setting": "[4]", "value": 0.29, "unit": "% ID/g"}, {"measurement": "% ID/g in spleen", "setting": "[4]", "value": 0.09, "unit": "% ID/g"}, {"measurement": "% ID/g in stomach", "setting": "[4]", "value": 0.04, "unit": "% ID/g"}, {"measurement": "% ID/g in tail", "setting": "[4]", "value": 0.13, "unit": "% ID/g"}, {"measurement": "% ID/g in thyroids", "setting": "[4]", "value": "−6.94", "unit": "% ID/g"}, {"measurement": "% ID/g in urine", "setting": "[4]", "value": 13.51, "unit": "% ID/g"}, {"measurement": "% ID/g in bladder", "setting": "[5]", "value": 8.52, "unit": "% ID/g"}, {"measurement": "% ID/g in blood", "setting": "[5]", "value": 0.04, "unit": "% ID/g"}, {"measurement": "% ID/g in bone (femur + joint)", "setting": "[5]", "value": 0.08, "unit": "% ID/g"}, {"measurement": "% ID/g in brain", "setting": "[5]", "value": "−0.01", "unit": "% ID/g"}, {"measurement": "% ID/g in feces", "setting": "[5]", "value": 5.27, "unit": "% ID/g"}, {"measurement": "% ID/g in heart", "setting": "[5]", "value": 0.28, "unit": "% ID/g"}, {"measurement": "% ID/g in kidneys", "setting": "[5]", "value": 1.07, "unit": "% ID/g"}, {"measurement": "% ID/g in large intestines", "setting": "[5]", "value": 0.68, "unit": "% ID/g"}, {"measurement": "% ID/g in liver", "setting": "[5]", "value": 0.55, "unit": "% ID/g"}, {"measurement": "% ID/g in lungs", "setting": "[5]", "value": 0.15, "unit": "% ID/g"}, {"measurement": "% ID/g in pancreas", "setting": "[5]", "value": 0.13, "unit": "% ID/g"}, {"measurement": "% ID/g in small intestines", "setting": "[5]", "value": 0.42, "unit": "% ID/g"}, {"measurement": "% ID/g in spleen", "setting": "[5]", "value": 0.43, "unit": "% ID/g"}, {"measurement": "% ID/g in stomach", "setting": "[5]", "value": 0.13, "unit": "% ID/g"}, {"measurement": "% ID/g in tail", "setting": "[5]", "value": 0.28, "unit": "% ID/g"}, {"measurement": "% ID/g in thyroids", "setting": "[5]", "value": 19.89, "unit": "% ID/g"}, {"measurement": "% ID/g in urine", "setting": "[5]", "value": 22.27, "unit": "% ID/g"}, {"measurement": "route of excretion (in words)", "setting": "i.v. injection, C57BL/6 mice", "value": "Most of the injected dose was renally excreted"}, {"measurement": "clearance from blood / mice (in words)", "setting": "[6]", "value": "rapidly cleared from mice"}, {"measurement": "organ accumulation (in words)", "setting": "[6]", "value": "did not accumulate in any organ"}]}]}
